In PubChem BioAssay AID1963828 (Molecular Pharmacology Branch, DTP, NCI, 2024):

Test system: 991263-137-R1-J2-PDC complex spheroid viability
Test: Anticancer human tumor 991263-137-R1-J2-PDC patient-derived colon adenocarcinoma cell line growth inhibition [POLQ]
Settings: for IC50: curve of first compound; for viability, T/C: stronger effect = lower value
In short: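 Complex spheroid viability model combining PDC tumour cells with endothelial (HUVEC) and MSC stromal cells. Novobiocin, ART-558 or RP6685 were tested singly and in combination with standard and investigational anticancer drugs. Each was titrated in half-log steps from near clinical Cmax, or from 10 microM where Cmax was unknown.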

[1] = second compound 0.0316 µM, first compound 0.0316 µM
[2] = second compound 0.0316 µM, first compound 0.1 µM
[3] = second compound 0.0316 µM, first compound 0.316 µM
[4] = second compound 0.0316 µM, first compound 1 µM
[5] = second compound 0.0316 µM, first compound 3.16 µM
[6] = second compound 0.0316 µM, first compound 10 µM
[7] = second compound 0.1 µM, first compound 0.0316 µM
[8] = second compound 0.1 µM, first compound 0.1 µM
[9] = second compound 0.1 µM, first compound 0.316 µM
[10] = second compound 0.1 µM, first compound 1 µM
[11] = second compound 0.1 µM, first compound 3.16 µM
[12] = second compound 0.1 µM, first compound 10 µM
[13] = second compound 0.316 µM, first compound 0.0316 µM
[14] = second compound 0.316 µM, first compound 0.1 µM
[15] = second compound 0.316 µM, first compound 0.316 µM
[16] = second compound 0.316 µM, first compound 1 µM
[17] = second compound 0.316 µM, first compound 3.16 µM
[18] = second compound 0.316 µM, first compound 10 µM
[19] = second compound 1 µM, first compound 0.0316 µM
[20] = second compound 1 µM, first compound 0.1 µM
[21] = second compound 1 µM, first compound 0.316 µM
[22] = second compound 1 µM, first compound 1 µM
[23] = second compound 1 µM, first compound 3.16 µM
[24] = second compound 1 µM, first compound 10 µM
[25] = second compound 3.16 µM, first compound 0.0316 µM
[26] = second compound 3.16 µM, first compound 0.1 µM
[27] = second compound 3.16 µM, first compound 0.316 µM
[28] = second compound 3.16 µM, first compound 1 µM
[29] = second compound 3.16 µM, first compound 3.16 µM
[30] = second compound 3.16 µM, first compound 10 µM
[31] = second compound 10 µM, first compound 0.0316 µM
[32] = second compound 10 µM, first compound 0.1 µM
[33] = second compound 10 µM, first compound 0.316 µM
[34] = second compound 10 µM, first compound 1 µM
[35] = second compound 10 µM, first compound 3.16 µM
[36] = second compound 10 µM, first compound 10 µM
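Also: spheroids exposed to compounds for 7 days before readout.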
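For viability, T/C in this document: 100% = DMSO vehicle control viability.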

Q: What does the source list for `CC(C)n1c(=O)n(C)c2cnc3cc(F)c(-c4ccc(OCCCN5CCCCC5)nc4)cc3c21` + COC1C(OC(N)=O)C(O)C(Oc2ccc3c(O)c(NC(=O)c4ccc(O)c(CC=C(C)C)c4)c(=O)oc3c2C)OC1(C)C?
A: IC50 (second compound 0.0316 µM): > 10 µM; IC50 (second compound 0.1 µM): > 10 µM; IC50 (second compound 0.316 µM): > 10 µM; IC50 (second compound 1 µM): > 10 µM; IC50 (second compound 3.16 µM): > 10 µM; IC50 (second compound 10 µM): > 10 µM; viability, T/C [1]: 107%; viability, T/C [2]: 109%; viability, T/C [3]: 118%; viability, T/C [4]: 101%; viability, T/C [5]: 103%; viability, T/C [6]: 82.7%; viability, T/C [7]: 91.5%; viability, T/C [8]: 106%; viability, T/C [9]: 116%; viability, T/C [10]: 99%; viability, T/C [11]: 102%; viability, T/C [12]: 82.1%; viability, T/C [13]: 86.3%; viability, T/C [14]: 114%; viability, T/C [15]: 117%; viability, T/C [16]: 96.9%; viability, T/C [17]: 106%; viability, T/C [18]: 96.2%; viability, T/C [19]: 109%; viability, T/C [20]: 106%; viability, T/C [21]: 112%; viability, T/C [22]: 83.5%; viability, T/C [23]: 109%; viability, T/C [24]: 90%; viability, T/C [25]: 111%; viability, T/C [26]: 116%; viability, T/C [27]: 110%; viability, T/C [28]: 108%; viability, T/C [29]: 95.3%; viability, T/C [30]: 96.1%; viability, T/C [31]: 95.1%; viability, T/C [32]: 119%; viability, T/C [33]: 117%; viability, T/C [34]: 114%; viability, T/C [35]: 107%; viability, T/C [36]: 96.6%

Q: Which IC50 (second compound 0.0316 µM) does the source give for `CC1COCCN1c1cc(-c2ccnn2C)c2ccnc(-c3ccn[nH]3)c2n1` (stereo unspecified) + COC1C(OC(N)=O)C(O)C(Oc2ccc3c(O)c(NC(=O)c4ccc(O)c(CC=C(C)C)c4)c(=O)oc3c2C)OC1(C)C here?
A: The IC50 was 0.745 µM.

Q: What about the IC50 (second compound 0.1 µM) of the same compound?
A: The IC50 was 0.709 µM.

Q: What about the IC50 (second compound 0.316 µM) of the same compound?
A: The IC50 was 0.679 µM.

Q: And the IC50 (second compound 1 µM)?
A: Its IC50 is 0.764 µM.

Q: What about the IC50 (second compound 3.16 µM) of the same compound?
A: The IC50 was 0.698 µM.

Q: And the IC50 (second compound 10 µM)?
A: The IC50 was 1.34 µM.

Q: What about the viability, T/C [1] of the same compound?
A: Its viability, T/C is 92.3%.

Q: What about the viability, T/C [2] of the same compound?
A: The viability, T/C was 95.7%.

Q: What about the viability, T/C [3] of the same compound?
A: The viability, T/C was 76.7%.

Q: What about the viability, T/C [4] of the same compound?
A: The viability, T/C was 40.9%.

Q: What about the viability, T/C [5] of the same compound?
A: The viability, T/C was 33.4%.

Q: And the viability, T/C [6]?
A: Its viability, T/C is 30%.

Q: What about the viability, T/C [7] of the same compound?
A: The viability, T/C was 98.2%.

Q: And the viability, T/C [8]?
A: The viability, T/C was 101%.

Q: And the viability, T/C [9]?
A: Its viability, T/C is 76%.

Q: And the viability, T/C [10]?
A: Its viability, T/C is 40.2%.

Q: What about the viability, T/C [11] of the same compound?
A: The viability, T/C was 23.1%.

Q: What about the viability, T/C [12] of the same compound?
A: The viability, T/C was 31.7%.

Q: What about the viability, T/C [13] of the same compound?
A: Its viability, T/C is 97.6%.

Q: What about the viability, T/C [14] of the same compound?
A: Its viability, T/C is 108%.

Q: And the viability, T/C [15]?
A: Its viability, T/C is 63.3%.

Q: And the viability, T/C [16]?
A: The viability, T/C was 46%.

Q: And the viability, T/C [17]?
A: The viability, T/C was 26.4%.

Q: What about the viability, T/C [18] of the same compound?
A: The viability, T/C was 23.4%.

Q: What about the viability, T/C [19] of the same compound?
A: Its viability, T/C is 89.6%.

Q: And the viability, T/C [20]?
A: Its viability, T/C is 104%.

Q: And the viability, T/C [21]?
A: The viability, T/C was 75.7%.

Q: And the viability, T/C [22]?
A: Its viability, T/C is 43.1%.

Q: What about the viability, T/C [23] of the same compound?
A: Its viability, T/C is 35.7%.

Q: What about the viability, T/C [24] of the same compound?
A: Its viability, T/C is 29.9%.

Q: And the viability, T/C [25]?
A: Its viability, T/C is 88.4%.

Q: What about the viability, T/C [26] of the same compound?
A: Its viability, T/C is 101%.

Q: And the viability, T/C [27]?
A: The viability, T/C was 69.5%.

Q: And the viability, T/C [28]?
A: Its viability, T/C is 42.2%.

Q: What about the viability, T/C [29] of the same compound?
A: The viability, T/C was 33%.

Q: And the viability, T/C [30]?
A: The viability, T/C was 26.9%.

Q: And the viability, T/C [31]?
A: The viability, T/C was 82.1%.

Q: And the viability, T/C [32]?
A: The viability, T/C was 95%.

Q: And the viability, T/C [33]?
A: Its viability, T/C is 85.7%.

Q: What about the viability, T/C [34] of the same compound?
A: Its viability, T/C is 54.9%.

Q: What about the viability, T/C [35] of the same compound?
A: The viability, T/C was 36.9%.

Q: What about the viability, T/C [36] of the same compound?
A: The viability, T/C was 30.8%.

Q: What does the source list for `CC1COCCN1c1cc(C2(S(C)(=N)=O)CC2)nc(-c2ccnc3[nH]ccc23)n1` (stereo unspecified) + COC1C(OC(N)=O)C(O)C(Oc2ccc3c(O)c(NC(=O)c4ccc(O)c(CC=C(C)C)c4)c(=O)oc3c2C)OC1(C)C?
A: IC50 (second compound 0.0316 µM): > 10 µM; IC50 (second compound 0.1 µM): > 10 µM; IC50 (second compound 0.316 µM): > 10 µM; IC50 (second compound 1 µM): > 10 µM; IC50 (second compound 3.16 µM): > 10 µM; IC50 (second compound 10 µM): > 10 µM; viability, T/C [1]: 99.2%; viability, T/C [2]: 84.5%; viability, T/C [3]: 104%; viability, T/C [4]: 87%; viability, T/C [5]: 91.5%; viability, T/C [6]: 66.1%; viability, T/C [7]: 113%; viability, T/C [8]: 112%; viability, T/C [9]: 101%; viability, T/C [10]: 89.2%; viability, T/C [11]: 97.6%; viability, T/C [12]: 55.4%; viability, T/C [13]: 96.3%; viability, T/C [14]: 106%; viability, T/C [15]: 89.9%; viability, T/C [16]: 69.6%; viability, T/C [17]: 104%; viability, T/C [18]: 83.8%; viability, T/C [19]: 106%; viability, T/C [20]: 103%; viability, T/C [21]: 91.2%; viability, T/C [22]: 89.5%; viability, T/C [23]: 96.5%; viability, T/C [24]: 79.9%; viability, T/C [25]: 92.8%; viability, T/C [26]: 85.9%; viability, T/C [27]: 98.3%; viability, T/C [28]: 106%; viability, T/C [29]: 103%; viability, T/C [30]: 84%; viability, T/C [31]: 86.8%; viability, T/C [32]: 106%; viability, T/C [33]: 105%; viability, T/C [34]: 96.6%; viability, T/C [35]: 107%; viability, T/C [36]: 70.9%
